Values after ≈ are worked out from the molar mass of the structure shown. Like-named read-outs stand apart in the source and are kept apart here. Where a SMILES comes first, the peptide text is derived from it. [ ]: non-standard residue; d: D form. The star is where a group is joined. Fumaryl(OMe) = COC(=O)/C=C/C(=O)*; Dap = NC[C@H](N)C(=O)O
What was measured:
Type in all cases: cell-based, Candida albicans
[1] = system: C. albicans SC 5314; assay: Disc diffusion method; conditions: YNB-AS agar, 10 μg of peptide on a disc (10 μL of 1 mg mL^-1), 48 h, 30°C
Method: (§1) Candida albicans cells, apparently resistant to FMDP-peptides, were isolated from the individual colonies formed on the surface of YNB-SG agar medium containing FMDP-peptide, 10 μg mL^-1 or within the growth inhibitory zones around the paper discs saturated with 10 μL of the FMDP-peptide solution, 1 mg mL^-1. In both versions, the agar surface was inoculated with 10^5 cells from the overnight culture in YPD medium, washed three times with sterile water, suspended in 0.2 mL of sterile water and the cell suspension was spread on the whole surface with a sterile glass rod. Plates were incubated for 48 h at 30°C and isolated colonies were picked with a platinum loop.
(§2) Growth inhibitory activity of FMDP-oligopeptides against C. albicans SC 5314 was also determined by the disc diffusion method. […] Cells grown in these colonies were collected, re-grown in YNB-AS and tested for sensitivity to FMDP-oligopeptides.
FIGURE 3 Disc diffusion activity determination of FMDP-oligopeptides. YNB-AS agar medium, 10 μg of each peptide applied on a disc. (A) F2; (B) F3; (C) F6; (D) F7; (E) F11.

[2] = system: C. albicans isolate LNF3; conditions: YNB-SG medium
Source text: (§3) The in vitro growth inhibitory activity of antifungals was quantified by determination of minimal inhibitory concentration (MIC) values by the serial twofold dilution method, using the 96-well microtiter plates in three media: buffered RPMI-1640, YNB-AS, and YNB-SG. Conditions of the RPMI-1640-based assay were the same as outlined in the CLSI recommendations ([Clinical Laboratory Standards Institute, 2008]), except for the end-point readout that was done by spectrophotometric determination of cell density at 531 nm. Turbidity in individual wells was measured with a microplate reader (Victor^3; Perkin Elmer). MIC was defined as the lowest drug concentration that gave at least an 80% decrease in turbidity, relative to that of the drug-free growth control.
(§4) The 96-well microtiter plates were also used for determination of in vitro growth inhibitory activity in YPD and YNB-based media. Individual wells were inoculated with 5 × 10^3 cfu mL^-1 of C. albicans cells from the overnight culture in YPD medium. The inoculated plates were incubated 37°C for 24 h and then turbidity was measured with a microplate reader at 531 nm, as described above for the RPMI-1640-based assay.
as §1, §2

[3] = system: C. albicans isolate NF1; conditions: YNB-SG medium
Source text: as §3, §4, §1, §2

[4] = system: C. albicans isolate LNF2; conditions: YNB-SG medium
Source text: as §3, §4, §1, §2

[5] = system: C. albicans isolate NF3; conditions: YNB-SG medium
Source text: as §3, §4, §1, §2

[6] = system: C. albicans isolate LNF1; conditions: YNB-SG medium
Source text: as §3, §4, §1, §2

[7] = system: C. albicans isolate NF2; conditions: YNB-SG medium
Source text: as §3, §4, §1, §2

[8] = system: C. albicans ptr2Δ ptr22Δ; conditions: turbidity 531 nm, at least 80% decrease
Method: (§5) Strains were grown at 30°C in YPD medium (1% yeast extract, 2% peptone, and 2% glucose) and stored on YPD plates containing 2% agar. Susceptibility testing was performed in YPD and other three media: (a) RPMI-1640 w/o sodium bicarbonate, with L-glutamine + 2% glucose + 3.45% MOPS, pH adjusted to 7.0; (b) YNB-AS—Yeast Nitrogen Base w/o amino acids (contains ammonium sulfate 5 g L^-1) + 2% glucose; (c) YNB-SG—Yeast Nitrogen Base w/o amino acids and ammonium sulfate + 2% glucose + 0.2 g L^-1 sodium glutamate. In their solid version, used for the mutant generation and isolation, YNB-AS and YNB-SG contained 2% agar.
as §3, §4

[9] = system: C. albicans opt1Δ; conditions: turbidity 531 nm, at least 80% decrease
Method: as §5, §3, §4

[10] = system: C. albicans opt1–opt5Δ ptr2Δ ptr22Δ; conditions: turbidity 531 nm, at least 80% decrease
Method: as §5, §3, §4

[11] = system: C. albicans SC5314; conditions: for MIC: SC 5314; for Increase of MICs in presence of Ala-Ala-Ala-Ala: YNB-SG + Ala-Ala-Ala-Ala 1 g L^-1; for Effect of supplementation with Ala-Ala or Ala-Ala-Ala on activity: YNB-based media + Ala-Ala or Ala-Ala-Ala, 1 g L^-1, 'similar effect' = complete elimination of activity as with Bacto Peptone; for MIC in YNB-AS, times higher than in YNB-SG: wild type SC5314
Method: as §5, §3, §4

[12] = system: C. albicans opt2Δ opt3Δ; conditions: turbidity 531 nm, at least 80% decrease
Method: as §5, §3, §4

[13] = system: C. albicans opt4Δ; conditions: turbidity 531 nm, at least 80% decrease
Method: as §5, §3, §4

[14] = system: C. albicans opt5Δ; conditions: turbidity 531 nm, at least 80% decrease
Method: as §5, §3, §4

[15] = system: C. albicans opt1–opt5Δ; conditions: turbidity 531 nm, at least 80% decrease
Method: as §5, §3, §4

[16] = RPMI-1640 medium, MOPS pH 7.0, CLSI conditions
[17] = RPMI-1640 medium, MOPS pH 7.0, CLSI conditions, turbidity 531 nm, at least 80% decrease
[18] = YNB + L-Gln (0.3 g L^-1) pH 5.0
[19] = YNB + L-Gln (0.3 g L^-1) pH 7.0
[20] = YNB + amino acid mixture (composition as in RPMI-1640)
[21] = YNB-AS medium, 5 × 10^3 cfu mL^-1, 37°C, 24 h, turbidity 531 nm, at least 80% decrease

| SMILES | Appearance of growth inhibitory zone [1] | MIC [2] [µg/mL] | MIC [3] [µg/mL] | MIC [4] [µg/mL] | MIC [5] [µg/mL] | MIC [6] [µg/mL] | MIC [7] [µg/mL] | MIC [8, 16] [µg/mL] | MIC ([8]; YNB-AS medium, 37°C, 24 h) [µg/mL] | MIC [9, 16] [µg/mL] | MIC ([9]; YNB-AS medium, 37°C, 24 h) [µg/mL] | MIC [10, 16] [µg/mL] | MIC ([10]; YNB-AS medium, 37°C, 24 h) [µg/mL] | MIC [11, 17] [µg/mL] | MIC [11, 18] [µg/mL] | MIC [11, 19] [µg/mL] | MIC [11, 20] [µg/mL] | MIC [11, 21] [µg/mL] | MIC ([11]; growth medium YNB-SG (Table 6)) [µg/mL] | Increase of MICs in presence of Ala-Ala-Ala-Ala [11] | also measured |
| --- | --- | --- | --- | --- | --- | --- | --- | --- | --- | --- | --- | --- | --- | --- | --- | --- | --- | --- | --- | --- | --- |
| COC(=O)/C=C/C(=O)NC[C@H](N)C(=O)N[C@@H](CCCNC(=N)N)C(=O)N[C@@H](CCCCN)C(=O)N[C@@H](CCCCN)C(=O)N[C@@H](Cc1c[nH]c2ccccc12)C(=O)N[C@@H](Cc1ccccc1)C(=O)N[C@@H](Cc1c[nH]c2ccccc12)C(=O)O [Peptide F7, FMDP-Arg-Lys-Lys-Trp-Phe-Trp] (H-[Dap](Fumaryl(OMe))RKKWFW-OH; N-terminus and C-terminus assumed) | clear | 16 (≈ 13.9 µM) | 16 (≈ 13.9 µM) | 16 (≈ 13.9 µM) | 16 (≈ 13.9 µM) | 16 (≈ 13.9 µM) | 16 (≈ 13.9 µM) | >128 | 16 (≈ 13.9 µM) | >128 | 32 (≈ 27.9 µM) | >128 | >128 | >128 | 8.0 | 64 | >128 | 16 (≈ 13.9 µM) | 0.5 (≈ 0.435 µM) | 16- to 64 fold | MIC ([8]; YNB-SG medium, 37°C, 24 h): 0.5 µg/mL (≈ 0.435 µM); MIC ([9]; YNB-SG medium, 37°C, 24 h): 8 µg/mL (≈ 6.97 µM); MIC ([10]; YNB-SG medium, 37°C, 24 h): 64 µg/mL (≈ 55.7 µM); MIC ([11]; YNB-SG medium, 5 × 10^3 cfu mL^-1, 37°C, 24 h, turbidity 531 nm, at least 80% decrease): 0.5 µg/mL (≈ 0.435 µM); Effect of supplementation with Ala-Ala or Ala-Ala-Ala on activity [11]: no effect; MIC in YNB-AS, times higher than in YNB-SG [11]: 8–16 times; MIC [12, 16]: >128 µg/mL; MIC ([12]; YNB-SG medium, 37°C, 24 h): 32 µg/mL (≈ 27.9 µM); MIC [13, 16]: >128 µg/mL; MIC ([13]; YNB-AS medium, 37°C, 24 h): 32 µg/mL (≈ 27.9 µM); MIC ([13]; YNB-SG medium, 37°C, 24 h): 16 µg/mL (≈ 13.9 µM); MIC [14, 16]: >128 µg/mL; MIC ([14]; YNB-AS medium, 37°C, 24 h): 32 µg/mL (≈ 27.9 µM); MIC ([14]; YNB-SG medium, 37°C, 24 h): 2 µg/mL (≈ 1.74 µM); MIC [15, 16]: >128 µg/mL; MIC ([15]; YNB-AS medium, 37°C, 24 h): >128 µg/mL; MIC ([15]; YNB-SG medium, 37°C, 24 h): 64 µg/mL (≈ 55.7 µM) |
| COC(=O)/C=C/C(=O)NC[C@H](N)C(=O)N[C@@H](CCCCN)C(=O)N[C@@H](CCCCN)C(=O)N[C@H](C(=O)N[C@H](C(=O)N[C@@H](Cc1ccccc1)C(=O)N[C@@H](Cc1c[nH]c2ccccc12)C(=O)N[C@H](C(=O)N[C@@H](CCCCN)C(=O)N[C@@H](Cc1ccccc1)C(=O)N[C@@H](CCCCN)C(=O)O)C(C)C)C(C)C)C(C)C [Peptide F11, FMDP-Lys-Lys-Val-Val-Phe-Trp-Val-Lys-Phe-Lys] (H-[Dap](Fumaryl(OMe))KKVVFWVKFK-OH; N-terminus assumed) | clear | 16 (≈ 10.6 µM) | 16 (≈ 10.6 µM) | 32 (≈ 21.2 µM) | 16 (≈ 10.6 µM) | 16 (≈ 10.6 µM) | 32 (≈ 21.2 µM) | >128 | 16 (≈ 10.6 µM) | >128 | 32 (≈ 21.2 µM) | >128 | >128 | >128 | 16 | >128 | >128 | 16 (≈ 10.6 µM) | 1.0 (≈ 0.664 µM) | 16- to 64 fold | Effect of N-acetyl-D-glucosamine supplementation on growth inhibitory activity ([11]; YNB-SG medium + N-acetyl-D-glucosamine, 10 mM): complete elimination of growth inhibitory activity; Effect of supplementation with Ala-Ala or Ala-Ala-Ala on activity [11]: no effect; MIC in YNB-AS, times higher than in YNB-SG [11]: 8–16 times; MIC [12, 16]: >128 µg/mL; MIC ([12]; YNB-AS medium, 37°C, 24 h): 128 µg/mL (≈ 84.9 µM); MIC [13, 16]: >128 µg/mL; MIC ([13]; YNB-AS medium, 37°C, 24 h): 32 µg/mL (≈ 21.2 µM); MIC [14, 16]: >128 µg/mL; MIC ([14]; YNB-AS medium, 37°C, 24 h): 16 µg/mL (≈ 10.6 µM); MIC [15, 16]: >128 µg/mL; MIC ([15]; YNB-AS medium, 37°C, 24 h): >128 µg/mL |

From article PMC5673977, “Transport Deficiency Is the Molecular Basis of Candida albicans Resistance to Antifungal Oligopeptides” (Frontiers in Microbiology, 2017)
